The target of this test is T1, PfTrx-2 (Plasmodium falciparum thioredoxin-2, MAL13P1.225) (Plasmodium falciparum, UniProt Q8IDP4).
T1 sequence (Q8IDP4 28-157): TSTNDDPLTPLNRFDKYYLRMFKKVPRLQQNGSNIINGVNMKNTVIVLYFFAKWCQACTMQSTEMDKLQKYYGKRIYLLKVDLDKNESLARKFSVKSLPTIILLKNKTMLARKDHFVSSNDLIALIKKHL
As to the kind of experiment: insulin reduction. In kind it is biochemical.

This passage reports IC50 results from PMC3240959 (2011).

A word on the IC50: it is the concentration that inhibits the measured activity by half. A low value points to inhibition by little substance.

Compound `O=C(O)CC([S][Au])C(=O)O` (racemic) [ATM, Aurothiomalate] had an IC50 of around 20 µM.
